Test results as given in patent publication US10314883B2, “Compositions and methods for regulating blood pressure” (University of Virginia Patent Foundation, priority 2015, dated 2019).

Experiments:
C57Bl/6 mice = experiment: Blood pressure by radiotelemetry after peptide injection; format: in vivo, mouse; details: conscious C57Bl/6 mice, acute intraperitoneal injection, within 1.5 hours; 5 mg/kg or 20 mg/kg
Protocol: Blood pressure was measured using radiotelemetry units (Data Sciences International, DSI) implanted in C57Bl/6, Cre^−/Panx1^F1, Cre^−/Panx1^WT, Cre^+/Panx1^WT, and Cre^+/Panx1^F1 mice. The catheter of a radiotelemetry unit (TA11PA-C10, DSI) was implanted in the mouse left carotid artery under isoflurane anesthesia, and the catheter was tunneled trough the radiotransmitter placed in a subcutaneous pouch along the right flank of the mouse, as previously described. After implantation, mice were allowed to recover for seven days.
[…] Blood pressure was recorded for another 1.5 hours, and the mean arterial pressure data from 1 to 1.5 hours post injection was averaged and compared to the basal blood pressure. The ΔMAP was calculated by subtracting the average mean arterial pressure measured for 30 minutes prior to injection to the mean arterial pressure measured for 30 minutes one hour post injection. […]
Based on the central role of α1AR signaling in blood pressure homeostasis, we evaluated the effect of Panx1 deletion on systemic blood pressure. Blood pressure was measured using radiotelemetry units as previously described by us. Blood pressure was measured on the conditional KO mouse model for five days before proceeding to tamoxifen injections, and for another five days 24 hours after the last tamoxifen injection. […]

[1] = system: thoracodorsal arteries (TDA); experiment: Pressure myography: agonist-induced constriction of pressurized TDAs from C57Bl/6 mice with pannexin inhibitors or Panx1 mimetic peptides; format: cell-based, mouse; details: for effect on phenylephrine-induced constriction of pressurized TDAs: TAT-linked peptides
Protocol: The contractile responses of pressurized thoracodorsal arteries (TDA) were measured as previously described. Briefly, TDA were isolated and placed in cold Krebs-HEPES until cannulation in a pressure arteriograph (Danish MyoTechnology). After a 30 minute equilibration period, cumulative concentrations of contractile agonists were applied to the TDA pressurized at 80 mmHg, and the vessel was visualized with an Olympus IX-71 microscope attached to a Hamamatsu EM-CCD camera coupled to Slidebook imaging software. […] Lastly, maximal diameter was measured at the end of each experiment in calcium-free Krebs-HEPES supplemented with EGTA (1 mmol/L) and sodium nitroprusside (10 μmol/L). In cases where the vessels were not constricting to the contractile agonist, their viability was assessed by applying 40 mM KCl and only TDA reaching 30% of the maximal diameter were considered for analysis. The contractile responses, as well as the basal tone, are expressed as a percentage of the maximal diameter.
Using pressure arteriography on TDA dissected from C57Bl/6 mice (as described; and aortic ring contraction, as described), we measured the effect of pannexin inhibitors, probenecid and 10Panx1, on the contractile response upon stimulation with different vasoconstrictors: phenylephrine (FIG. 1A), noradrenaline (also called norepinephrine) (FIG. 1B), serotonin (also known as 5-HT) (FIG. 1C) and endothelin-1 (FIG. 1D). […] In contrast, ^10Panx1 and probenecid had no effect on contraction of TDA measured in response to cumulative concentrations of serotonin or endothelin-1 (FIGS. 1C-D; Table 1).
To determine the region of Panx1 necessary for channel activation in response to α1AR stimulation, we produced short peptides derived from the intracellular regions of the Panx1 channel. We generated two peptides mimicking unique mouse Panx1 (mPanx1) sequences in the first intracellular loop (IL1 and IL2) and two peptides mimicking unique mPanx1 sequences in the C-terminal region, one in second intracellular loop (CT1) and one in the C-terminal tail (CT2) (FIG. 4A scissors indicate caspase 3 cleavage site; Table 3). All peptides also contained a TAT sequence to facilitate entry into cells and we verified the intracellular localization of each peptide by immunofluorescence detection of the TAT sequence in TDAs pre-incubated with each peptide (FIG. 7A). We tested the effect of each peptide on phenylephrine-induced contractile responses in pressurized TDAs from C57Bl/6 mice (FIGS. 4B-E). […] Note that these differences in effects of phenylephrine were similar in magnitude to those observed in arteries from SMC-specific Panx1-knockout mice and littermate controls (FIG. 2C, Table 2).

[2] = in presence of the named peptide

Substance	reduction of mean arterial blood pressure (C57Bl/6 mice)	effect on noradrenaline-induced constriction ([1]; C57Bl/6 TDAs)	effect on phenylephrine-induced constriction of pressurized TDAs ([1]; C57Bl/6 TDAs)	EMAX of endothelin-1 for TDA constriction [1, 2]	EMAX of noradrenaline for TDA constriction [1, 2]	EMAX of phenylephrine for TDA constriction [1, 2]	EMAX of serotonin for TDA constriction [1, 2]
KYPIVEQYLKYGRKKQRRR [IL2]	13.0±3.3 mmHg	inhibited	significantly decreased	41.9 ± 3.73 percentage of maximal diameter	53.4 ± 7.00 percentage of maximal diameter	68.6 ± 5.11 percentage of maximal diameter	36.7 ± 3.52 percentage of maximal diameter
scrambled intracellular loop 2 IYLYVEQKPY (SEQ ID NO: 7) linked with a TAT sequence [Scrambled IL2]	no significant effect		no significant effect			47.5 ± 2.17 percentage of maximal diameter	
